The record followed here is patent US20230210829A1, “REJUVENATION OF AGED TISSUES BY INHIBITION OF THE PGE2 DEGRADING ENZYME, 15-PGDH” (The Board of Trustees of the Leland Stanford Junior …, priority 2020, published 2023).

In assay [1] the test system is aged mice. Put plainly: Hematoxylin and Eosin (H&E) histological evaluation of spleen in aged mice treated with 15-PGDH inhibitor. It counts as in vivo. The following applies: aged (25 months) mice, intraperitoneally for 4 weeks, H&E staining. Here is the method: FIG. 3. […] Hematoxylin and Eosin (H&E) staining of spleen in young vehicle treated (4 months), aged vehicle treated (25 months) and aged SW033291 treated (25 months) intraperitoneally for 4 weeks.
(§1) All experiments and protocols were performed in compliance with the institutional guidelines of Stanford University and Administrative Panel on Laboratory Animal Care (APLAC). Aged (>24 mo.) mice C57BL/6 were obtained from the US National Institute on Aging (NIA) for aged muscle studies, and young (2-4 mo.) wild-type C57BL/6 mice from Jackson Laboratory.

The subject of assay [2] is aged mice. Nature of the assay: Luminex assay of mouse sera (serum cytokine levels) in aged mice treated with 15-PGDH inhibitor. The following applies: aged (25 months) mice, 4 weeks intraperitoneal administration. It counts as in vivo.
Text: FIGS. 4A-4H. Inhibition of 15-PGDH rejuvenates systemic cytokine levels. Serum levels of (FIG. 4A) interleukin-10 (IL10), (FIG. 4B) interleukin-6 (IL6), (FIG. 4C) betacellulin (BTC), (FIG. 4D) granulocyte-macrophage colony-stimulating factor (GM-CSF), (FIG. 4E) interleukin-13 (IL13), (FIG. 4F) tumor necrosis factor-alpha (TNFA), (FIG. 4G) interleukin-1 beta (IL1B), and (FIG. 4H) interleukin-22 (IL22) measured in young vehicle (4 months), young SW033291 (4 months), aged vehicle treated (25 months), and aged SW033291 treated (25 months) mice by Luminex bead arrays. MFI—Mean fluorescence intensity.
as §1
Aging is associated with an altered state of inflammation and is associated with changes in circulating levels of various cytokines. Altered cytokine signaling in aging can initiate a cascade of dysregulated signaling pathways that negatively impact the function of various organs. Age-dysregulated cytokine signaling has been implicated in increased mortality, frailty, cellular senescence, vascular aging, cognitive decline, atherosclerosis, risk of osteoarthritis, and loss of bone mineral density in aging. […] Furthermore, a reduction of IL6 is associated with reduced adipose tissue inflammation and reduced cellular senescence. […] Increased IL22 levels are anti-inflammatory in colonic tissue and are beneficial for inflammatory bowel disease and colitis. […] This systemic effect in turn ameliorates the function of other tissues.

Molecules are shown by their SMILES.

With `CCCC[S+]([O-])c1sc2nc(-c3cccs3)cc(-c3ccccc3)c2c1N` (stereo not drawn) [SW033291, 2-(butylsulfinyl)-4-phenyl-6-(thiophen-2-yl)thieno[2,3-b]pyridin-3-amine], in assay [1], the “cell density within the splenic follicles” value was “increased cell density within the follicles”, the “follicular structure of spleen” value is given as “restored” and the “marginal zone of spleen” value is on record as “reestablished”. The splenic morphology result in assay [1] (vs aged vehicle and young) is “rejuvenated the splenic morphology”. In addition, the “serum level of interleukin-10 (IL10)” value in assay [2] (FIG. 4A) is “restored to levels similar to those of young mice”. In addition, the “serum level of interleukin-6 (IL6)” value in assay [2] (FIG. 4B) is given as “restored to levels similar to those of young mice”. In assay [2] (FIG. 4C), the “serum level of betacellulin (BTC)” value is listed as “restored to levels similar to those of young mice”. In assay [2] (FIG. 4D), the “serum level of granulocyte-macrophage colony-stimulating factor (GM-CSF)” value was “restored to levels similar to those of young mice”. For the same molecule, in assay [2] (FIG. 4E), the “serum level of interleukin-13 (IL13)” value was “restored to levels similar to those of young mice”. The “serum level of tumor necrosis factor-alpha (TNFA)” value in assay [2] (FIG. 4F) is “further increased”. For the same molecule, the “serum level of interleukin-1 beta (IL1B)” value in assay [2] (FIG. 4G) is “further increased”. Besides, the “serum level of interleukin-22 (IL22)” value in assay [2] (FIG. 4H) is on record as “further increased”.
